From the supplement of paper PMC10307832

How the values were obtained:
Experiment in all cases: relative viability (nuclei count vs DMSO), 5 days (fraction); higher = more cells survive
NCI-H322M = test system: NCI-H322M
Outline: (§1)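 Relative viability was taken as the ratio of nuclei in treated wells to nuclei in vehicle wells. Lung cancer cell lines in 1536-well plates received compounds by pin tool one day after seeding, either one drug alone or a fixed anchor-drug dose plus five library-drug doses (not always all listed) in √10 steps. Nuclei were counted on 4× images after 5 days of treatment, and values are medians of duplicate plates.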

SK-MES-1 = test system: SK-MES-1
Outline: as §1

NCI-H1915 = test system: NCI-H1915
Outline: as §1

NCI-H2347 = test system: NCI-H2347
Outline: as §1

NCI-H520 = test system: NCI-H520
Outline: as §1

NCI-H441 = test system: NCI-H441
Outline: as §1

NCI-H1563 = test system: NCI-H1563
Outline: as §1

NCI-H3122 = test system: NCI-H3122
Outline: as §1

LCLC-103H = test system: LCLC-103H
Outline: as §1

NCI-H650 = test system: NCI-H650
Outline: as §1

NCI-H1792 = test system: NCI-H1792
Outline: as §1

Clc1ccc(Nc2nnc(Cc3ccncc3)c3ccccc23)cc1 [Vatalanib] + CS(=O)(=O)N1CCN(Cc2cc3nc(-c4cccc5[nH]ncc45)nc(N4CCOCC4)c3s2)CC1 [Pictilisib] (partner 1 µM)
relative viability (NCI-H322M; first compound 0.04 µM): 0.513 | relative viability (NCI-H322M; first compound 0.1265 µM): 0.489 | relative viability (NCI-H322M; first compound 0.4 µM): 0.555 | relative viability (NCI-H322M; first compound 1.265 µM): 0.534 | relative viability (NCI-H322M; first compound 4 µM): 0.553 | relative viability (SK-MES-1; first compound 0.04 µM): 0.408 | relative viability (SK-MES-1; first compound 0.1265 µM): 0.351 | relative viability (SK-MES-1; first compound 0.4 µM): 0.387 | relative viability (SK-MES-1; first compound 1.265 µM): 0.338 | relative viability (SK-MES-1; first compound 4 µM): 0.365 | relative viability (NCI-H1915; first compound 0.04 µM): 1.12 | relative viability (NCI-H1915; first compound 0.1265 µM): 0.929 | relative viability (NCI-H1915; first compound 0.4 µM): 0.972 | relative viability (NCI-H1915; first compound 1.265 µM): 0.863 | relative viability (NCI-H1915; first compound 4 µM): 0.942 | relative viability (NCI-H2347; first compound 0.04 µM): 0.709 | relative viability (NCI-H2347; first compound 0.1265 µM): 0.723 | relative viability (NCI-H2347; first compound 0.4 µM): 0.409 | relative viability (NCI-H2347; first compound 1.265 µM): 0.92 | relative viability (NCI-H2347; first compound 4 µM): 0.319 | relative viability (NCI-H520; first compound 0.04 µM): 0.312 | relative viability (NCI-H520; first compound 0.1265 µM): 0.277 | relative viability (NCI-H520; first compound 0.4 µM): 0.34 | relative viability (NCI-H520; first compound 1.265 µM): 0.306 | relative viability (NCI-H520; first compound 4 µM): 0.308 | relative viability (NCI-H441; first compound 0.04 µM): 0.561 | relative viability (NCI-H441; first compound 0.1265 µM): 0.4 | relative viability (NCI-H441; first compound 0.4 µM): 0.592 | relative viability (NCI-H441; first compound 1.265 µM): 0.474 | relative viability (NCI-H441; first compound 4 µM): 0.501 | relative viability (NCI-H1563; first compound 0.04 µM): 0.634 | relative viability (NCI-H1563; first compound 0.1265 µM): 0.677 | relative viability (NCI-H1563; first compound 0.4 µM): 0.685 | relative viability (NCI-H1563; first compound 1.265 µM): 0.673 | relative viability (NCI-H1563; first compound 4 µM): 0.652 | relative viability (NCI-H3122; first compound 0.04 µM): 0.66 | relative viability (NCI-H3122; first compound 0.1265 µM): 0.534 | relative viability (NCI-H3122; first compound 0.4 µM): 0.646 | relative viability (NCI-H3122; first compound 1.265 µM): 0.573 | relative viability (NCI-H3122; first compound 4 µM): 0.593 | relative viability (LCLC-103H; first compound 0.04 µM): 0.6 | relative viability (LCLC-103H; first compound 0.1265 µM): 0.606 | relative viability (LCLC-103H; first compound 0.4 µM): 0.55 | relative viability (LCLC-103H; first compound 1.265 µM): 0.596 | relative viability (LCLC-103H; first compound 4 µM): 0.714 | relative viability (NCI-H650; first compound 0.04 µM): 0.875 | relative viability (NCI-H650; first compound 0.1265 µM): 0.914 | relative viability (NCI-H650; first compound 1.265 µM): 0.868 | relative viability (NCI-H650; first compound 4 µM): 0.909 | relative viability (NCI-H1792; first compound 0.04 µM): 0.279 | relative viability (NCI-H1792; first compound 0.1265 µM): 0.327 | relative viability (NCI-H1792; first compound 0.4 µM): 0.249 | relative viability (NCI-H1792; first compound 1.265 µM): 0.276 | relative viability (NCI-H1792; first compound 4 µM): 0.28
